Measured values taken from US20250304623A1, “PEPTIDES FOR INTRACELLULAR DELIVERY” (UNIVERSIDADE DE SANTIAGO DE COMPOSTELA, priority 2022, published 2025).
*: point of attachment. NHNH2 = NN*

Assays:
Format in all cases: cell-based
[1] = tested on: HepG2 cells expressing EGFP; assay: EGFP-targeting siRNA delivery (GFP silencing vs siMOCK), HepG2
Method: (§1) To generate an EGFP expressing HeLa cell line, HeLa cells were transfected with EGFP pDNA (pEGFP-C1, Clontech) and stable transfectants were selected with 400 μg/mL of G-418 (Millipore). Green clones were selected by epifluorescence microscopy and tested for EGFP expression stability through several passages. […] All other EGFP-expressing cell lines were obtained in a similar way from parent non-EGFP-expressing cell lines.
Cells expressing EGFP were seeded in a 96 well plate the day before the experiment at a concentration of 50,000 cell/mL (100 μL/w) in DMEM+10% FBS+1% Gln-Abt. For robotic library screening, the delivery of an EGFP-targeting siRNA (EGFP: enhanced green fluorescent protein, Ambion® Silencer® GFP Positive Control siRNA (siGFP) (AM4626)) in six different cell lines expressing EGFP was performed. […] The mixture was shaken for 30 min at room temperature (rt) before the addition to the cells. The cell medium was aspirated, and cells were washed twice with PBS. Finally, 50 μL of the solution of siRNA/amphiphile complexes were added to the cells and incubated for 4 h. After transfection, the medium was replaced by 100 μL of fresh DMEM supplemented with 10% FBS. The fluorescence knockdown was quantified after 72 h in a plate reader, by comparison with cells transfected with a non-targeting siRNA control (siMOCK, Silencer™ Negative Control No. 1 siRNA (siMOCK) (AM4611)). EGFP knockdown was compared with Lipofectamine® RNAiMAX silencing efficiency (30-60% depending on cell line, defined with a numeric value in the below tables). All experiments were done in triplicate.
(§2) Tables 1-7: RLuc (pDNA) or EGFP (mRNA) expression levels were normalized to Lipofectamine reagents (value=1) and expressed as fold-times signal increase. In the case of siRNA, the siRNA treated cells fluorescence was compared with siMOCK control fluorescence, while Cas9-RNP mediated knockout was measured against the fluorescence of untreated cells. In both siRNA and Cas9-RNP, values are expressed as % fluorescence reduction. Amphiphile concentration was 5 μM in all cases. All experiments were performed in triplicate.
Tables 20-25 show the mean (triplicates) percentage of GFP-silencing, accounted by fluorescence intensity decrease relative to a non-targeting siRNA (siMOCK) control, measured after the transfection of siRNA by different amphiphiles at different concentrations in a variety of cell lines. Background values, accounted by untreated control cells, were subtracted for processing.

[2] = tested on: Hek293 cells expressing EGFP; assay: Cas9-RNP delivery against EGFP (gene editing, plate reader), Hek293
Method: as §1
Cells expressing EGFP were seeded in a 96 well plate the day before the experiment at a concentration of 50,000 cell/mL (100 μL/w) in DMEM+10% FBS+1% Gln-Abt. For robotic library screening, the delivery of Cas9-RNP against EGFP (RNP designed to knock-out the gene encoding for the enhanced green fluorescent protein (EGFP)) was performed. For RNP assembly, 9.2 μL of crRNA and 9.2 μL of tracrRNA were mixed in 211.6 μL of Nuclease-Free Duplex Buffer (IDT), incubated for 5 min at 95° C. and slowly cooled at rt (see I. Lostalé-Seijo, et al. Peptide/Cas9 nanostructures for ribonucleoprotein cell membrane transport and gene edition, Chem. Sci., 2017). Cas9 protein was dissolved in DMEM at a final concentration of 4 μM and equal volumes of the RNA complex and Cas9 were mixed and incubated for 5 min at rt. 75 μL of the corresponding amphiphile concentrations were added to 5 μL of RNP at 2 μM. The mixture was shaken for 30 min at room temperature before the addition to the cells. The cell medium was aspirated, and cells were washed twice with PBS. Cells were covered with 30 μL of DMEM and 20 μL of the RNP/amphiphile complexes were added to the cells (final peptide concentrations=2.5, 5 and 10 μM; final Cas9-RNP concentration=50 nM) and incubated for 4 h. After the incubation, the medium was replaced by 100 μL of fresh DMEM supplemented with 10% FBS. The total EGFP fluorescence was quantified after 72 h in a plate reader (FIG. 2, Table 1 (right) and Table 6). All experiments were done in triplicate. […]
Tables 26-31 show the mean (triplicates) percentage of gene editing, accounted by GFP fluorescence intensity decrease (% of reduction), measured after the transfection of Cas9-RNP by different amphiphiles at different concentrations in a variety of cell lines. Background values, accounted by untreated control cells, were subtracted for processing.

[3] = tested on: Hela cells; assay: EGFP mRNA delivery, robotic library screening, HeLa
Method: Cells were seeded in a 96 well plate the day before the experiment at a concentration of 50,000 cell/mL (100 μL/w) in DMEM+10% FBS+1% Gln-Abt. For robotic library screening, the delivery of EGFP-mRNA (from TriLink, fully substituted with 5-methoxyuridine, capped and polyadenylated; TriLink, CleanCap® EGFP mRNA (5moU), ref. L-7201) in six different cell lines was performed. Amphiphilic molecule stock solutions were prepared in DMSO as described above and diluted in DMEM to afford a range of concentrations. The solutions of EGFP-mRNA/amphiphilic molecule complexes were freshly prepared prior to the transfection experiments. 35 μL of the corresponding amphiphile were added to 10 μL of a solution of EGFP-mRNA at 10 ng/μL in DMEM. The mixture was shaken for 30 min at room temperature before the addition to the cells. The cell medium was aspirated, and cells were washed with PBS twice. Cells were covered with 39 μL of DMEM and 11 μL of the complex's solution were added to the cells and incubated for 4 h (final concentration of peptide=2.5, 5 and 10 μM; final concentration of EGFP-mRNA=25 ng/well). After the incubation, the medium was replaced by 100 μL of fresh DMEM supplemented with 10% FBS. The total EGFP fluorescence was quantified after 72 h in a well plate reader. Amphiphile transfection efficiency was compared and normalized to Lipofectamine® MessengerMax efficiency (value of 1 in Tables 1-5 and 7; double underlined numbers). All experiments were done in triplicate.
as §2
Tables 14-19 show the mean (triplicates) fluorescence intensity measured after the transfection of EGFP mRNA by different amphiphiles at different concentrations in a variety of cell lines. Background fluorescence values, accounted by untreated control cells, were subtracted for processing.

Substance	percentage of GFP-silencing relative to siMOCK ([1]; Dodecanal, 10 μM) [%]	percentage of GFP-silencing relative to siMOCK ([1]; Dodecanal, 15 μM) [%]	percentage of GFP-silencing relative to siMOCK ([1]; Myristoleyl, 5 μM) [%]	percentage of GFP-silencing relative to siMOCK ([1]; Myristoleyl, 10 μM) [%]	percentage of GFP-silencing relative to siMOCK ([1]; Myristoleyl, 15 μM) [%]	percentage of GFP-silencing relative to siMOCK ([1]; Oleyl, 10 μM) [%]	percentage of GFP-silencing relative to siMOCK ([1]; Palmitoleyl, 5 μM) [%]	percentage of gene editing, GFP fluorescence intensity decrease (% of reduction) ([2]; Dodecanal, 5 μM) [%]	percentage of gene editing, GFP fluorescence intensity decrease (% of reduction) ([2]; Dodecanal, 15 μM) [%]	percentage of gene editing, GFP fluorescence intensity decrease (% of reduction) ([2]; Myristoleyl, 5 μM) [%]	percentage of gene editing, GFP fluorescence intensity decrease (% of reduction) ([2]; Oleyl, 10 μM) [%]	percentage of gene editing, GFP fluorescence intensity decrease (% of reduction) ([2]; Petroselinyl, 5 μM) [%]	mean fluorescence intensity (EGFP mRNA) ([3]; HeLa, Dodecanal, 2.5 μM)	mean fluorescence intensity (EGFP mRNA) ([3]; HeLa, Dodecanal, 5 μM)	mean fluorescence intensity (EGFP mRNA) ([3]; HeLa, Myristoleyl, 2.5 μM)	mean fluorescence intensity (EGFP mRNA) ([3]; HeLa, Oleyl, 5 μM)	mean fluorescence intensity (EGFP mRNA) ([3]; HeLa, Petroselinyl, 10 μM)	mean fluorescence intensity (EGFP mRNA) ([3]; Hela, Dodecanal, 10 μM)	mean fluorescence intensity (EGFP mRNA) ([3]; Hela, Myristoleyl, 10 μM)	mean fluorescence intensity (EGFP mRNA) ([3]; Hela, Myristoleyl, 5 μM)	also measured
Ac-RK*LRK*K*L-NH2 (Ac-RK(NHNH2)LRK(NHNH2)K(NHNH2)L-NH2; not fully specified; printed as Ac-RK*LRK*K*L-NH2; also: K*2,K*5,K*6: native or modified lysine (ε-amide to a linker)) [Peptide 7.3]	17	10	6	5	3	9	9	−11	−15	−20	−34	29	6327	4738	13591	501	732	572	647	–	percentage of GFP-silencing relative to siMOCK ([1]; Oleyl, 5 μM): 7%; percentage of GFP-silencing relative to siMOCK ([1]; Petroselinyl, 5 μM): 18%; percentage of GFP-silencing relative to siMOCK ([1]; Petroselinyl, 10 μM): 19%; percentage of gene editing, GFP fluorescence intensity decrease (% of reduction) ([2]; Palmitoleyl, 5 μM): 23%; percentage of gene editing, GFP fluorescence intensity decrease (% of reduction) ([2]; Palmitoleyl, 10 μM): −1%; percentage of gene editing, GFP fluorescence intensity decrease (% of reduction) ([2]; Palmitoleyl, 15 μM): 3%; percentage of gene editing, GFP fluorescence intensity decrease (% of reduction) ([2]; Petroselinyl, 10 μM): 34%; percentage of gene editing, GFP fluorescence intensity decrease (% of reduction) ([2]; Petroselinyl, 15 μM): 23%; mean fluorescence intensity (EGFP mRNA) ([3]; HeLa, Petroselinyl, 2.5 μM): 9039; mean fluorescence intensity (EGFP mRNA) ([3]; Hela, Palmitoleyl, 10 μM): 189
Ac-RK*LRRK*L-NH2 (Ac-RK(NHNH2)LRRK(NHNH2)L-NH2; not fully specified; printed as Ac-RK*LRRK*L-NH2; also: K*2,K*6: native or modified lysine (ε-amide to a linker)) [Peptide 7.2]	14	7	−12	−1	−32	–	–	−21	−29	−23	–	–	268	341	5194	–	–	288	358	654	–
Ac-RK*LRRK*LRK*-NH2 (Ac-RK(NHNH2)LRRK(NHNH2)LRK(NHNH2)-NH2; not fully specified; printed as Ac-RK*LRRK*LRK*-NH2; also: K*2,K*6,K*9: native or modified lysine (ε-amide to a linker)) [Peptide 9.3]	–	–	−11	–	6	−9	−2	−11	–	–	−5	−12	2347	3482	11661	441	1322	–	–	2874	percentage of GFP-silencing relative to siMOCK ([1]; Palmitoleyl, 15 μM): −2%; percentage of GFP-silencing relative to siMOCK ([1]; Petroselinyl, 15 μM): −3%; percentage of gene editing, GFP fluorescence intensity decrease (% of reduction) ([2]; Dodecanal, 10 μM): −53%; percentage of gene editing, GFP fluorescence intensity decrease (% of reduction) ([2]; Oleyl, 5 μM): 12%; mean fluorescence intensity (EGFP mRNA) ([3]; Hela, Oleyl, 10 μM): 335; mean fluorescence intensity (EGFP mRNA) ([3]; Hela, Palmitoleyl, 5 μM): 3313; mean fluorescence intensity (EGFP mRNA) ([3]; Hela, Petroselinyl, 5 μM): 9616
Ac-RK*LRRLLRK*-NH2 (Ac-RK(NHNH2)LRRLLRK(NHNH2)-NH2; not fully specified; printed as Ac-RK*LRRLLRK*-NH2; also: K*2,K*9: native or modified lysine (ε-amide to a linker)) [Peptide 9.2]	–	–	−22	–	−22	–	–	−38	–	–	–	–	933	390	1738	–	–	–	–	585	percentage of gene editing, GFP fluorescence intensity decrease (% of reduction) ([2]; Dodecanal, 10 μM): −55%
